Values quoted from earlier work, collected in publication PMC9635817, “In vitro inhibition of acetylcholinesterase activity by yellow field pea (Pisum sativum) protein-derived peptides as revealed by kinetics and molecular docking” (Frontiers in Nutrition, 2022).

Test system: AChE

For `COc1cc2c(cc1OC)[C@@H]1[C@H](O)[C@@H](OC)C=C3CCN(C2)[C@H]31` [galanthine], the “AChE-inhibitory IC50” value is given as 1.96 µg/mL.
